Source: the supplement of paper PMC11208160

Assay: recombinant barcode read abundance after kanamycin selection (control-corrected) (log10(CPM+1)); higher = more efficient recombination; sequences stand for … in AGTGCAGAGAAAATCGGCCAGTTTTCTCTGCCTGCAGTCCGCATGCCGT…AGATTTATGCAGCGGACTGCCTTTCTCCCAAAGTGATAAACCGGACAGTATCATGGACCGGTTTTCCCGGTAATCCGTATTTGCAAGGTTGGTTTCACT; site = the 11-nt target
Outline: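 A promoter, a target, a barcode and the first 104 bridge RNA bases under J23119 made up each oligo. Oligos were Gibson-cloned into a vector bearing the other 73 bp and a T7-inducible recombinase, then co-electroporated into E. coli with a donor plasmid and plated in duplicate on chloramphenicol/ampicillin LB agar (control) or chloramphenicol/ampicillin/kanamycin with 0.1 mM IPTG. Recombination efficiency is the averaged, control-corrected counts per million of recombinant-junction barcodes. Reported values are log10(CPM+1).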
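Further: IS621 recombinase and bridge RNA in Escherichia coli cells.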

Sequence: AGTCTCCCTTGGGTTCTAACCTGTTGCCT (site AGGCTCCCTAG)
- recombinant barcode read abundance (log10): 0.0232

Sequence: AGTCTCCCTTGGGTTCTAACCTGTTGCCT (site AGTCTCCCTAG)
- recombinant barcode read abundance (log10): 1.56

Sequence: AGTCTCTCTTGGGTTCTAACCTGTTGCCG (site AGTCTCTCTCG)
- recombinant barcode read abundance (log10): 0.357

Sequence: AGTCTCTCTTGGGTTCTAACCTGTTGCCG (site AGTCTCTCTTA)
- recombinant barcode read abundance (log10): 0.0569

Sequence: AGTGCGGCTTGGGTTCTAACCTGTTGCCT (site AGTGCGGCTAG)
- recombinant barcode read abundance (log10): 0.685

Sequence: AGTGCGGCTTGGGTTCTAACCTGTTGCCT (site CGTGCGGCTAG)
- recombinant barcode read abundance (log10): 0.231

Sequence: AGTGCGGCTTGGGTTCTAACCTGTTGCCT (site GGTGCGGCTAG)
- recombinant barcode read abundance (log10): 0.0363

Sequence: AGTGCGGCTTGGGTTCTAACCTGTTGCCT (site TGTGCGGCTAG)
- recombinant barcode read abundance (log10): 0.143

Sequence: AGTTAACCTTGGGTTCTAACCTGTTGCGG (site ACTTGACCTCC)
- recombinant barcode read abundance (log10): 0.0373

Sequence: AGTTAACCTTGGGTTCTAACCTGTTGCGG (site AGTTAACCTCC)
- recombinant barcode read abundance (log10): 1.97

Sequence: AGTTACACTTGGGTTCTAACCTGTTGCCT (site AGTTACACTAG)
- recombinant barcode read abundance (log10): 0.637

Sequence: AGTTACACTTGGGTTCTAACCTGTTGCCT (site AGTTCCACTAG)
- recombinant barcode read abundance (log10): 0.0139

Sequence: AGTTACACTTGGGTTCTAACCTGTTGCCT (site AGTTGCACTAG)
- recombinant barcode read abundance (log10): 0.0991

Sequence: AGTTACACTTGGGTTCTAACCTGTTGCCT (site AGTTTCACTAG)
- recombinant barcode read abundance (log10): 0.0317

Sequence: AGTTAGCCTTGGGTTCTAACCTGTTGCCT (site AGTAAGCCTAG)
- recombinant barcode read abundance (log10): 0.107

Sequence: AGTTAGCCTTGGGTTCTAACCTGTTGCCT (site AGTCAGCCTAG)
- recombinant barcode read abundance (log10): 0.161

Sequence: AGTTAGCCTTGGGTTCTAACCTGTTGCCT (site AGTGAGCCTAG)
- recombinant barcode read abundance (log10): 0.114

Sequence: AGTTAGCCTTGGGTTCTAACCTGTTGCCT (site AGTTAGCCTAG)
- recombinant barcode read abundance (log10): 0.361

Sequence: AGTTAGTCTTGGGTTCTAACCTGTTGCAG (site AGTTAGTCTCT)
- recombinant barcode read abundance (log10): 1.48

Sequence: AGTTAGTCTTGGGTTCTAACCTGTTGCAG (site GTACGCACTAG)
- recombinant barcode read abundance (log10): 0.0583

Sequence: AGTTCACCTTGGGTTCTAACCTGTTGCTA (site AGTTCACCTTA)
- recombinant barcode read abundance (log10): 0.0738

Sequence: AGTTCACCTTGGGTTCTAACCTGTTGCTA (site GAGGGCTCTCC)
- recombinant barcode read abundance (log10): 0.314

Sequence: AGTTCATCTTGGGTTCTAACCTGTTGCAT (site AGTTCATCTAT)
- recombinant barcode read abundance (log10): 0.0989

Sequence: AGTTCATCTTGGGTTCTAACCTGTTGCAT (site CTAGATGCTTC)
- recombinant barcode read abundance (log10): 0

Sequence: AGTTGCCCTTGGGTTCTAACCTGTTGCCT (site AATTGCCCTAG)
- recombinant barcode read abundance (log10): 0.738

Sequence: AGTTGCCCTTGGGTTCTAACCTGTTGCCT (site ACTTGCCCTAG)
- recombinant barcode read abundance (log10): 0.068

Sequence: AGTTGCCCTTGGGTTCTAACCTGTTGCCT (site AGTTGCCCTAG)
- recombinant barcode read abundance (log10): 0.457

Sequence: AGTTGCCCTTGGGTTCTAACCTGTTGCCT (site ATTTGCCCTAG)
- recombinant barcode read abundance (log10): 0.0653

Sequence: AGTTGGCCTTGGGTTCTAACCTGTTGCGA (site AGTTGGCCTTC)
- recombinant barcode read abundance (log10): 0.45

Sequence: AGTTGGCCTTGGGTTCTAACCTGTTGCGA (site CCACCTTCTAG)
- recombinant barcode read abundance (log10): 0.123

Sequence: AGTTGTCCTTGGGTTCTAACCTGTTGCCT (site AGTTGTCCTAA)
- recombinant barcode read abundance (log10): 0.174

Sequence: AGTTGTCCTTGGGTTCTAACCTGTTGCCT (site AGTTGTCCTAC)
- recombinant barcode read abundance (log10): 0.0671

Sequence: AGTTGTCCTTGGGTTCTAACCTGTTGCCT (site AGTTGTCCTAG)
- recombinant barcode read abundance (log10): 0.132

Sequence: AGTTGTCCTTGGGTTCTAACCTGTTGCCT (site AGTTGTCCTAT)
- recombinant barcode read abundance (log10): 0.296

Sequence: ATAACTACTTGGGTTCTAACCTGTTGCTT (site ATAACTACTAA)
- recombinant barcode read abundance (log10): 0.216

Sequence: ATAACTACTTGGGTTCTAACCTGTTGCTT (site TACCTACCTTC)
- recombinant barcode read abundance (log10): 0.0357

Sequence: ATAAGCCCTTGGGTTCTAACCTGTTGCCT (site AAAAGCCCTAG)
- recombinant barcode read abundance (log10): 0.176

Sequence: ATAAGCCCTTGGGTTCTAACCTGTTGCCT (site ACAAGCCCTAG)
- recombinant barcode read abundance (log10): 0.212

Sequence: ATAAGCCCTTGGGTTCTAACCTGTTGCCT (site AGAAGCCCTAG)
- recombinant barcode read abundance (log10): 0.166

Sequence: ATAAGCCCTTGGGTTCTAACCTGTTGCCT (site ATAAGCCCTAG)
- recombinant barcode read abundance (log10): 1.36

Sequence: ATAAGCTCTTGGGTTCTAACCTGTTGCCT (site ATAAGCTCTAG)
- recombinant barcode read abundance (log10): 2.3

Sequence: ATAAGCTCTTGGGTTCTAACCTGTTGCCT (site CTAAGCTCTAG)
- recombinant barcode read abundance (log10): 0.289

Sequence: ATAAGCTCTTGGGTTCTAACCTGTTGCCT (site GTAAGCTCTAG)
- recombinant barcode read abundance (log10): 0.119

Sequence: ATAAGCTCTTGGGTTCTAACCTGTTGCCT (site TTAAGCTCTAG)
- recombinant barcode read abundance (log10): 0.766

Sequence: ATAAGGACTTGGGTTCTAACCTGTTGCTA (site ATAAGGACTTA)
- recombinant barcode read abundance (log10): 2.01

Sequence: ATAAGGACTTGGGTTCTAACCTGTTGCTA (site ATACGGACTTA)
- recombinant barcode read abundance (log10): 0.111

Sequence: ATAAGGACTTGGGTTCTAACCTGTTGCTA (site ATAGGGACTTA)
- recombinant barcode read abundance (log10): 1.26

Sequence: ATAAGGACTTGGGTTCTAACCTGTTGCTA (site ATATGGACTTA)
- recombinant barcode read abundance (log10): 0.52

Sequence: ATAAGGGCTTGGGTTCTAACCTGTTGCCT (site ATAAATGCTAG)
- recombinant barcode read abundance (log10): 0.183

Sequence: ATAAGGGCTTGGGTTCTAACCTGTTGCCT (site ATAAGGGCTAG)
- recombinant barcode read abundance (log10): 0.652

Sequence: ATAAGTCCTTGGGTTCTAACCTGTTGCCA (site ATAAGTCCTTG)
- recombinant barcode read abundance (log10): 0.582

Sequence: ATAAGTCCTTGGGTTCTAACCTGTTGCCA (site GTAAGTACTTG)
- recombinant barcode read abundance (log10): 0.0629

Sequence: ATACGTACTTGGGTTCTAACCTGTTGCCT (site ATACGTACTAG)
- recombinant barcode read abundance (log10): 1.74

Sequence: ATACGTACTTGGGTTCTAACCTGTTGCCT (site CTACGTACTAG)
- recombinant barcode read abundance (log10): 0.0799

Sequence: ATACGTACTTGGGTTCTAACCTGTTGCCT (site GTACGTACTAG)
- recombinant barcode read abundance (log10): 0.067

Sequence: ATACGTACTTGGGTTCTAACCTGTTGCCT (site TTACGTACTAG)
- recombinant barcode read abundance (log10): 0.0363

Sequence: ATACTACCTTGGGTTCTAACCTGTTGCGG (site ATACTACCTCC)
- recombinant barcode read abundance (log10): 1.4

Sequence: ATACTACCTTGGGTTCTAACCTGTTGCGG (site ATCCCACCTCC)
- recombinant barcode read abundance (log10): 0.119

Sequence: ATATACTCTTGGGTTCTAACCTGTTGCCG (site ATATACTCTCG)
- recombinant barcode read abundance (log10): 2.38

Sequence: ATATACTCTTGGGTTCTAACCTGTTGCCG (site ATCTACTCTAG)
- recombinant barcode read abundance (log10): 0.0335

Sequence: ATATGAGCTTGGGTTCTAACCTGTTGCCG (site ATATGAGCTCG)
- recombinant barcode read abundance (log10): 0.307

Sequence: ATATGAGCTTGGGTTCTAACCTGTTGCCG (site ATATGCGCTCG)
- recombinant barcode read abundance (log10): 0.175

Sequence: ATATGAGCTTGGGTTCTAACCTGTTGCCG (site ATATGGGCTCG)
- recombinant barcode read abundance (log10): 0.0468

Sequence: ATATGAGCTTGGGTTCTAACCTGTTGCCG (site ATATGTGCTCG)
- recombinant barcode read abundance (log10): 0.167

Sequence: ATATGAGCTTGGGTTCTAACCTGTTGCTT (site ACATGACCTAA)
- recombinant barcode read abundance (log10): 0.177

Sequence: ATATGAGCTTGGGTTCTAACCTGTTGCTT (site ATATGAGCTAA)
- recombinant barcode read abundance (log10): 0.283
